According to patent US20150342964A1, “DEXAMETHASONE POLYMER IMPLANT FOR PAIN” (Warsaw Orthopedic, Inc., priority 2014, published 2015):
Entries after “also recorded” stand apart in the source; their conditions may differ.

Experiments:
[1] = test system: rat chronic constriction injury (CCI) model; experiment: von Frey Monofilament Test (mechanical/tactile allodynia) in rat CCI model of neuropathic pain; settings: systemic, subcutaneous 0.02 mg/kg every day from day 7 post-surgery
[2] = Body weight, side effects and adverse reactions observed over the 57-day rat CCI study; settings: systemic, sc 0.02 mg/kg every day, 57-day study
[3] = test system: rat chronic constriction injury (CCI) model; experiment: Thermal Paw Withdrawal Latency Test (thermal hyperalgesia) in rat CCI model of neuropathic pain; settings: systemic, subcutaneous 0.02 mg/kg every day from day 7 post-surgery; p<0.05

Compound	mechanical allodynia (paw withdrawal threshold) relative to either PBS or unloaded pellet [1]	overt side effects or adverse reactions at the site of injection [2]	thermal paw withdrawal responses/latencies relative to both PBS and unloaded PLA pellet [3]
Clc1cccc(Cl)c1N=C1NCCN1 [clonidine]	no effect on paw withdrawal threshold responses	no overt side effects or adverse reactions at the site of injection; also recorded: did not cause any overt side effects or adverse reactions	increased thermal paw withdrawal latencies on various test days
C[C@@H]1C[C@H]2[C@@H]3CCC4=CC(=O)C=C[C@]4(C)[C@@]3(F)[C@@H](O)C[C@]2(C)[C@@]1(O)C(=O)CO [dexamethasone, (8S, 9R, 10S, 11S, 13S, 14S, 16R, 17R)-9-Fluoro-11,17-dihydroxy-17-(2-hydroxyacetyl)-10,13,16-trimethyl-6,7,8,11,12,14,15,16-octahydro-cyclopenta[a]phenanthren-3-one]	–	no overt side effects or adverse reactions at the site of injection; also recorded: did not cause any overt side effects or adverse reactions	–
